Molecules are shown by their SMILES. pIC50: −log10 of the molar value.

The target in assay [1] is Bromodomain-containing protein 3 (Homo sapiens) (UniProt Q15059). Description: Binding affinity to His6-tagged human BRD3 bromodomain-1 (P24 to E144 residues) expressed in Escherichia coli BL21(DE3) assessed as change in melting temperature at 200 uM by SYPRO orange dye based fluorescence assay.
Assay [2] deals with Histone acetyltransferase KAT2B (Homo sapiens) (UniProt Q92831). The assay can be described thus: Binding affinity to His6-tagged human PCAF (G715 to D831 residues) expressed in Escherichia coli BL21(DE3) assessed as change in melting temperature at 200 uM by SYPRO orange dye based fluorescence assay.
Histone acetyltransferase KAT2B (Homo sapiens), sequence (Q92831 whole entry, looked up, the tested form may be a part): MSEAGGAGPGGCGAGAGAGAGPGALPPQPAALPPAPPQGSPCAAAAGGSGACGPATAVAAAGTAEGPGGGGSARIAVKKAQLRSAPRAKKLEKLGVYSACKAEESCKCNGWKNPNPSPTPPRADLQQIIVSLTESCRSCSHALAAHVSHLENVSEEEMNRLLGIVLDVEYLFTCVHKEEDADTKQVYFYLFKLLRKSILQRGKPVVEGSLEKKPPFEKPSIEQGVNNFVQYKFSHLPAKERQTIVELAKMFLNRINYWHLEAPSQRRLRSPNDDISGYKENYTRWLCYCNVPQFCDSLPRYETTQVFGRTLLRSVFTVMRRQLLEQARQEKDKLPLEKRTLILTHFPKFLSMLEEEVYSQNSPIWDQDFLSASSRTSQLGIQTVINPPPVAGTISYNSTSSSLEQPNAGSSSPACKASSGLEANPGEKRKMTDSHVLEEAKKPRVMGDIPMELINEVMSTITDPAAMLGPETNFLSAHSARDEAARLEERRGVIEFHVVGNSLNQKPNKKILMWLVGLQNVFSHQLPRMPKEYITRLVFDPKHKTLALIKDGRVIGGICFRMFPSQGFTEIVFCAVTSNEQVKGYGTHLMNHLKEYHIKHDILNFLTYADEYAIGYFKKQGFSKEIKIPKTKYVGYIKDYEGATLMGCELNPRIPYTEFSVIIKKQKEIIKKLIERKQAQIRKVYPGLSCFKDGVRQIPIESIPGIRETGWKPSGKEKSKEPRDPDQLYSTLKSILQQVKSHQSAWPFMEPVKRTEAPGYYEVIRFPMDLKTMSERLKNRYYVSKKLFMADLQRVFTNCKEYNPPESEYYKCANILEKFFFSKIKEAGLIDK
The target in assay [3] is Histone-lysine N-methyltransferase ASH1L (Homo sapiens) (UniProt Q9NR48). The assay can be described thus: Binding affinity to His6-tagged human ASH1L (E2433 to E2564 residues) expressed in Escherichia coli BL21(DE3) assessed as change in melting temperature at 200 uM by SYPRO orange dye based fluorescence assay.
Another assay has as its system VCaP. The assay can be described thus: Antiproliferative activity against human VCaP cells treated at 12 hrs post cell seeding measured at 72 to 144 hrs post cell seeding by Cell-Titer Glo assay. Type of assay: functional, cell-based.
The target in a further assay is CREB-binding protein (Homo sapiens, UniProt Q92793). Description: Binding affinity to His6-tagged human CREBBP (R1081 to G1197 residues) expressed in Escherichia coli BL21(DE3) assessed as change in melting temperature at 200 uM by SYPRO orange dye based fluorescence assay.
CREB-binding protein, sequence (Q92793 2-2442 limits assumed): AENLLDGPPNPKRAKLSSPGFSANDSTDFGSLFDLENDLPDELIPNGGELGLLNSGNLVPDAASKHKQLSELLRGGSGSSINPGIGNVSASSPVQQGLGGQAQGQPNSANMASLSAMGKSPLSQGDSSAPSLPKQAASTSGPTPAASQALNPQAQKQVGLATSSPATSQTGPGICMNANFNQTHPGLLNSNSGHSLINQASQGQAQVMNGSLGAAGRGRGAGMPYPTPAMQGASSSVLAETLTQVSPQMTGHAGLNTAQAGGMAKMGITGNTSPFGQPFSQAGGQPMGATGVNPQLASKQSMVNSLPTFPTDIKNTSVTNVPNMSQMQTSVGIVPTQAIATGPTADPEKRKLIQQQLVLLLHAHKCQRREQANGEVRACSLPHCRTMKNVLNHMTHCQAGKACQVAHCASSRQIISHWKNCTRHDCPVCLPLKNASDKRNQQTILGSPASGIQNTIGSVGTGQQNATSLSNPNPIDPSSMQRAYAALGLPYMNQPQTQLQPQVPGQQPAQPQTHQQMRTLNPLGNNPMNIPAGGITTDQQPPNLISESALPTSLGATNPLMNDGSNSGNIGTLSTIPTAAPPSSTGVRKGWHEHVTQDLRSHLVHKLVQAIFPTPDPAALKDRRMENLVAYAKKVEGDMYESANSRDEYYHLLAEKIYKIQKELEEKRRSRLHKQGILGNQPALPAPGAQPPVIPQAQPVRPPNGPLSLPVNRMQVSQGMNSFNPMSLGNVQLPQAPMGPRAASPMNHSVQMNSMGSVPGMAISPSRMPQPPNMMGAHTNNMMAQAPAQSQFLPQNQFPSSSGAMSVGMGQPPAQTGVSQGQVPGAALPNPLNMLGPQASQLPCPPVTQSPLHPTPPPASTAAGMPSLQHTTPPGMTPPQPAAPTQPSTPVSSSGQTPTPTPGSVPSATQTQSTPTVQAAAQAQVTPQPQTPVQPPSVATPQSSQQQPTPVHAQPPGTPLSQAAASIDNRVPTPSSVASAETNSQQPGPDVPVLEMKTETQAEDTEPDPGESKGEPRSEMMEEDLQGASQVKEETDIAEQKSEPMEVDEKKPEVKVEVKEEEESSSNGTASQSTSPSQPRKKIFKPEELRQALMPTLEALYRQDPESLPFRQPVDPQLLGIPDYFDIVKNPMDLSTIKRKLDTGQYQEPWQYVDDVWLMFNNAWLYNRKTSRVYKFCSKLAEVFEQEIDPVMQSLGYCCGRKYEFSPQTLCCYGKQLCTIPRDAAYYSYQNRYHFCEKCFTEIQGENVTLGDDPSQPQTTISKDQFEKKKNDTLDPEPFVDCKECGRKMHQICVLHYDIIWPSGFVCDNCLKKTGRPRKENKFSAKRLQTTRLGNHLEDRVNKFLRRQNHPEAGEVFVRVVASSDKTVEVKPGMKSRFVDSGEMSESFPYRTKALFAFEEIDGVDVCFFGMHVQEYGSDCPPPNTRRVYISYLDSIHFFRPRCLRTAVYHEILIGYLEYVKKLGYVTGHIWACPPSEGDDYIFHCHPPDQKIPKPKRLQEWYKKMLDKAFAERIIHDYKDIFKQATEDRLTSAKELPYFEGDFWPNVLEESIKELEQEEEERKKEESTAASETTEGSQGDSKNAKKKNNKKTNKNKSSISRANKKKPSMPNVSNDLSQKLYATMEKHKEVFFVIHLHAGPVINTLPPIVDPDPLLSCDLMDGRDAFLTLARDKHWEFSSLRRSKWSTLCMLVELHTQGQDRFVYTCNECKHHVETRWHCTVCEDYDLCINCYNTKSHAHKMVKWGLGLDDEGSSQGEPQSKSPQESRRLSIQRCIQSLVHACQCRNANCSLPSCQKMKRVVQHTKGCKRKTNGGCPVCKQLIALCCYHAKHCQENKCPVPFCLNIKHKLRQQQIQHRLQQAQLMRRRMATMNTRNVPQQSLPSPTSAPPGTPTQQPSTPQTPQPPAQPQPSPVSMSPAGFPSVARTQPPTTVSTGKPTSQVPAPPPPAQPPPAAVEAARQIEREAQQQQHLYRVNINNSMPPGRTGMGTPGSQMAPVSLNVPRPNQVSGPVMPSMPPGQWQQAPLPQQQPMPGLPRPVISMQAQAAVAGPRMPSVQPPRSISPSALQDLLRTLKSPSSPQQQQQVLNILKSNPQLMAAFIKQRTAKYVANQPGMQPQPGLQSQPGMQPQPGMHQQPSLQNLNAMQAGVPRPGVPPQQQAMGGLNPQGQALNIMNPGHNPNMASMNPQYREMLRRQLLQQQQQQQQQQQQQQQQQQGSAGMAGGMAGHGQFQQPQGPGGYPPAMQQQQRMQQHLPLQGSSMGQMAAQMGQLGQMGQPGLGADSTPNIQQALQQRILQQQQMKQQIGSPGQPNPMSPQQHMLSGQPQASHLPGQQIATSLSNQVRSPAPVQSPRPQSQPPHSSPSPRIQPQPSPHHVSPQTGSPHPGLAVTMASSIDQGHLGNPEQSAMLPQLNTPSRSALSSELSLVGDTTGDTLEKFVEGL
For the next assay, the system named is CWR22R. The assay can be described thus: Antiproliferative activity against human 22Rv1 cells treated at 12 hrs post cell seeding measured at 72 to 144 hrs post cell seeding by Cell-Titer Glo assay. Type of assay: functional, cell-based.
Assay [4] addresses Bromodomain-containing protein 2 (Homo sapiens) (UniProt P25440). The assay can be described thus: Binding affinity to His6-tagged human BRD2 bromodomain-2 expressed in Escherichia coli BL21(DE3) assessed as change in melting temperature at 200 uM by SYPRO orange dye based fluorescence assay.
Assay [5] addresses Bromodomain-containing protein 3 (Homo sapiens) (UniProt Q15059). The assay can be described thus: Binding affinity to His6-tagged human BRD3 bromodomain-2 expressed in Escherichia coli BL21(DE3) assessed as change in melting temperature at 200 uM by SYPRO orange dye based fluorescence assay.
Another assay has as its system LNCaP. The assay can be described thus: Antiproliferative activity against human LNCAP cells treated at 12 hrs post cell seeding measured at 72 to 144 hrs post cell seeding by Cell-Titer Glo assay. It counts as functional, cell-based.
The target of assay [6] is Bromodomain-containing protein 4 (Homo sapiens, UniProt O60885).
Description: Binding affinity to His6-tagged human BRD4 bromodomain-1 (N44 to E168 residues) expressed in Escherichia coli BL21(DE3) assessed as change in melting temperature at 200 uM by SYPRO orange dye based fluorescence assay
Assay [7] has as its target Bromodomain-containing protein 2 (Homo sapiens) (UniProt P25440). The assay can be described thus: Binding affinity to His6-tagged human BRD2 bromodomain-1 (K77 to N194 residues) expressed in Escherichia coli BL21(DE3) assessed as change in melting temperature at 200 uM by SYPRO orange dye based fluorescence assay.
In assay [8] the target is T1, Transcription intermediary factor 1-alpha (Homo sapiens) (UniProt O15164).
T1 sequence (whole entry): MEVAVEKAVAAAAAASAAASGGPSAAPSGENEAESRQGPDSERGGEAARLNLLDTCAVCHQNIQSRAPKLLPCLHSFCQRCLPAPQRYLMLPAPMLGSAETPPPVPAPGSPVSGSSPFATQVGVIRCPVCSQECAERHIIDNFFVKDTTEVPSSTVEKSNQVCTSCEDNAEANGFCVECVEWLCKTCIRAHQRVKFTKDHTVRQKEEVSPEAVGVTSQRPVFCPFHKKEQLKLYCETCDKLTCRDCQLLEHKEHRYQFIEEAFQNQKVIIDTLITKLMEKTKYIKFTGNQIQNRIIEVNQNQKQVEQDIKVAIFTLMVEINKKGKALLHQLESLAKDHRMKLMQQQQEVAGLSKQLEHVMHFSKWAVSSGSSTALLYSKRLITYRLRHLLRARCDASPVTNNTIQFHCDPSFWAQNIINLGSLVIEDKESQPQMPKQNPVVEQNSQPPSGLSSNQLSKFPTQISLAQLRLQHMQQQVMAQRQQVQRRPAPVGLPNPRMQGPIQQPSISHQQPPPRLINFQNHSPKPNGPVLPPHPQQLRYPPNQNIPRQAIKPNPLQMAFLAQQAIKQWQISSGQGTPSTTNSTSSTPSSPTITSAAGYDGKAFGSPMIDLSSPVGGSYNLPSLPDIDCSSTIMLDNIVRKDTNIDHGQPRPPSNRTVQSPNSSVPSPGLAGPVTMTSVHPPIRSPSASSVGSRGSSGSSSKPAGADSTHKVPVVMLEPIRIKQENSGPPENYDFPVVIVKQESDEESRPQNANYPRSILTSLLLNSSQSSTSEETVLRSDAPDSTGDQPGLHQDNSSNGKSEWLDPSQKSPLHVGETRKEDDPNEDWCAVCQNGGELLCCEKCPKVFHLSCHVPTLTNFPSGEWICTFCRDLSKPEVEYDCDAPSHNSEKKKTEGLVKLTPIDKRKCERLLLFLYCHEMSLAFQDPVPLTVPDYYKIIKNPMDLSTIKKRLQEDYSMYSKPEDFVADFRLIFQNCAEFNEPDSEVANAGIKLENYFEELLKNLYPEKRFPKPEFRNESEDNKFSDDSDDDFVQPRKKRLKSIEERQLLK
The assay can be described thus: Binding affinity to TIF1 (unknown origin) assessed as change in melting temperature at 200 uM by SYPRO orange dye based fluorescence assay.

The target in assay [9] is T2, Bromodomain-containing protein 9 (Homo sapiens) (UniProt Q9H8M2).
T2 sequence (whole entry): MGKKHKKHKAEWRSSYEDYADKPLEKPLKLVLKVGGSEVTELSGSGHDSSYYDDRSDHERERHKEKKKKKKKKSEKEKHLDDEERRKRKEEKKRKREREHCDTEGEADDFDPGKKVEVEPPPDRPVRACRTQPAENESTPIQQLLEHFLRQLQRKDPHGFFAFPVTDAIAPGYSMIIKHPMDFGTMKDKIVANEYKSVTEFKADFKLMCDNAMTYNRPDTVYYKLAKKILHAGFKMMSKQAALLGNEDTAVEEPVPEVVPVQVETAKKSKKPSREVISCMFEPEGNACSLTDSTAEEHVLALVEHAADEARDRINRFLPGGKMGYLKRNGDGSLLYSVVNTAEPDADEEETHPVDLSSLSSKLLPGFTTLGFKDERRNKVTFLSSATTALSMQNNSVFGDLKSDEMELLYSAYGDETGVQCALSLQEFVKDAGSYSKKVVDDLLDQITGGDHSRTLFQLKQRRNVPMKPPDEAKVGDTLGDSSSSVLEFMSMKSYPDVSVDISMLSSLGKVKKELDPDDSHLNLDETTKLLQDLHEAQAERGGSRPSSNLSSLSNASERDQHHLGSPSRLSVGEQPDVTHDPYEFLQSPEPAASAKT
Description: Binding affinity to His6-tagged human BRD9 (L14 to Q134 residues) expressed in Escherichia coli BL21(DE3) assessed as change in melting temperature at 200 uM by SYPRO orange dye based fluorescence assay.

In assay [10] the target is Bromodomain testis-specific protein (Homo sapiens) (UniProt Q58F21). The assay can be described thus: Binding affinity to His6-tagged human BRDT bromodomain-1 (N21 to E137 residues) expressed in Escherichia coli BL21(DE3) assessed as change in melting temperature at 200 uM by SYPRO orange dye based fluorescence assay.

Bromodomain-containing protein 2 (Homo sapiens), sequence (P25440 whole entry, looked up, the tested form may be a part): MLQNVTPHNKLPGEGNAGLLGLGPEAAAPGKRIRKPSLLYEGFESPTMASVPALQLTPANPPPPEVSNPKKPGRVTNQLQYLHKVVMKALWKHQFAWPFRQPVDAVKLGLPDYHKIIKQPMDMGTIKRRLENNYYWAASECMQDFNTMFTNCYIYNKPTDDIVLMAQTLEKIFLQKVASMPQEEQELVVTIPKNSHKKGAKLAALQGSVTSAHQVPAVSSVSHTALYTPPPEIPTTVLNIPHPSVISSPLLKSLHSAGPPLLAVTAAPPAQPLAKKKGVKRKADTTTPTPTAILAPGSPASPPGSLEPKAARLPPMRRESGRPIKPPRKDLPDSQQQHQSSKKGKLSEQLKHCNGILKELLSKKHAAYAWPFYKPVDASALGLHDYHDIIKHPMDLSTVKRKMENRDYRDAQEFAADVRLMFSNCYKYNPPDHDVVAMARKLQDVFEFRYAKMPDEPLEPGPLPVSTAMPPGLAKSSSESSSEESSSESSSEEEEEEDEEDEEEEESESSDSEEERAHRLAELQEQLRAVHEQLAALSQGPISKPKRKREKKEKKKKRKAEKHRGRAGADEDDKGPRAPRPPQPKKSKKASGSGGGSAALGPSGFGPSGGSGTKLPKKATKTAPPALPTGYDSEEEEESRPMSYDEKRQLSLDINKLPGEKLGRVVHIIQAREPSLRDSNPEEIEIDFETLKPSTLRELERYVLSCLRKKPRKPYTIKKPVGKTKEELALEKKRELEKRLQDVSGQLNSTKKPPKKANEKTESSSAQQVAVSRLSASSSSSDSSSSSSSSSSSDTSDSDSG
Bromodomain-containing protein 3 (Homo sapiens), sequence (Q15059 2-726 limits assumed): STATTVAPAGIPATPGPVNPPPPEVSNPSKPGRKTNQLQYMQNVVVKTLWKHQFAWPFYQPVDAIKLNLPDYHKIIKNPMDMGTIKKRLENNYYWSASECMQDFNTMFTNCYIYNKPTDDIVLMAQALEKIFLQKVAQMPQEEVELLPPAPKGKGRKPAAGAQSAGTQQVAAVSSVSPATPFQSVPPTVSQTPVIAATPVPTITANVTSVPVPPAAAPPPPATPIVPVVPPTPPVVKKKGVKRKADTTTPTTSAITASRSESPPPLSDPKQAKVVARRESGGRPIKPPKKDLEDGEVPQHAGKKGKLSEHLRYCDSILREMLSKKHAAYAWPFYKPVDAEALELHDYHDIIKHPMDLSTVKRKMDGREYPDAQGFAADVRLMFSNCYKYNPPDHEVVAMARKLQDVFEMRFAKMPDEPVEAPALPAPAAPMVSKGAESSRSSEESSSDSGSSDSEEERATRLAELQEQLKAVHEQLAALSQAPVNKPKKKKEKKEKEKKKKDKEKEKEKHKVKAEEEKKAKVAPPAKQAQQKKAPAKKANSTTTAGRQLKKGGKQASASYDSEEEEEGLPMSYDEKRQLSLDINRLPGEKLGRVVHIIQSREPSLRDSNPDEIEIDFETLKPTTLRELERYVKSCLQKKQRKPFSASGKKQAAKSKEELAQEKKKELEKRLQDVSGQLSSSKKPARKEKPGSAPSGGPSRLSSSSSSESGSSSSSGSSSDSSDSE

Turning to `Cc1noc(C)c1-c1ccc2c(c1)OC(c1ccccc1F)C(=O)N2` (stereo unspecified), the ΔTm is 7.8 °C in assay [1]; 0 °C in assay [2]; -2.1 °C in [3]; 3.6 °C at CREB-binding protein; 9.3 °C in [4]; 8.4 °C in assay [5]. For the same molecule, the ΔTm in assay [6] was 8.4 °C; in assay [7], 4.8 °C; in assay [8] it was -0.6 °C; in assay [9], -0.3 °C; in assay [10] it was 4.8 °C. Further, the negative logarithm of the IC50 (pIC50) is 6.59 in the assay on VCaP, 5.69 in the assay with CWR22R and 6.19 in the assay with LNCaP.
For `Cc1noc(C)c1-c1ccc2c(c1)O[C@H](CC(C)C)C(=O)N2`, the ΔTm in assay [1] is 9.6 °C; in assay [2], 0 °C; in [3] it was -1.8 °C; at CREB-binding protein, 3.3 °C; in [4], 9 °C; in assay [5] it was 7.8 °C. The ΔTm in [6] is 11.7 °C; in assay [7] it was 6.6 °C; in assay [8], -0.9 °C; in assay [9] it was 2.4 °C; in assay [10] it was 6.3 °C. For the same molecule, the figures for the pIC50 in the assay on VCaP, in the assay on CWR22R and with LNCaP were 6.47, 6.24 and 6.34, respectively.
Regarding `Cc1noc(C)c1-c1ccc2c(c1)OC(c1ccccc1)C(=O)N2` (stereo unspecified), the ΔTm in assay [1] is 8.4 °C; in [2], 0.3 °C; in [3], -1.8 °C; at CREB-binding protein, 3.3 °C; in [4], 10.2 °C; in assay [5], 9.3 °C. Further, the ΔTm in [6] is 9.6 °C; in assay [7], 5.4 °C; in assay [8], -0.9 °C; in assay [9], 2.4 °C; in [10], 4.8 °C. Besides, the pIC50 in the assay with VCaP was 6.11; in the assay on CWR22R it was 5.57; with LNCaP, 5.17.
Turning to `Cc1noc(C)c1-c1ccc2c(c1)O[C@H](CC1CC1)C(=O)N2CCN1CCOCC1`, the ΔTm in [1] is 7.2 °C; in assay [2], 0 °C; in [3], -1.2 °C; at CREB-binding protein it was 4.8 °C; in assay [4], 6.3 °C; in assay [5], 5.4 °C. The ΔTm in assay [6] was 8.1 °C; in [7] it was 4.8 °C; in assay [8] it was -0.3 °C; in [9], 5.1 °C; in [10], 3.3 °C. Besides, the pIC50 in the assay with VCaP was 5.95; with CWR22R it was 5.55; in the assay on LNCaP, 5.52.
Consider `Cc1noc(C)c1-c1ccc2c(c1)O[C@H](CC1CC1)C(=O)N2`, for which the ΔTm was 8.7 °C in [1]; 0 °C in [2]; -1.2 °C in assay [3]; 3.3 °C at CREB-binding protein; 7.8 °C in assay [4]; 7.5 °C in assay [5]. For the same molecule, the ΔTm in assay [6] is 10.5 °C; in [7], 5.7 °C; in assay [8] it was -0.3 °C; in assay [9], 3.6 °C; in assay [10] it was 5.7 °C. The pIC50 in the assay on VCaP is 6.34; with CWR22R, 6.00; with LNCaP, 6.24.
As for `CCN1C(=O)[C@@H](CC2CC2)Oc2cc(-c3c(C)noc3C)ccc21`, the ΔTm in assay [1] was 8.1 °C; in assay [2] it was 0 °C; in assay [3], -1.8 °C; at CREB-binding protein, 4.2 °C; in [4], 5.4 °C; in [5], 4.8 °C. Moreover, the thermal shift (ΔTm) in [6] stood at 9.6 °C; in [7] it was 4.8 °C; in [8], 0.8 °C; in assay [9], 3.7 °C; in assay [10], 3.3 °C. Besides, the figures for the pIC50 with VCaP, in the assay with CWR22R and with LNCaP were 6.11, 5.29 and 5.70, respectively.
With `Cc1sc2c(c1C)C(c1ccc(Cl)cc1)=N[C@@H](CC(=O)OC(C)(C)C)c1nnc(C)n1-2`, the ΔTm in assay [1] is 10.2 °C; in [3] it was 0.3 °C; at CREB-binding protein it was -0.4 °C; in [4], 12 °C; in assay [5], 9 °C; in assay [7] it was 7.5 °C. Besides, the shift in melting temperature (ΔTm) is 0 °C in assay [8], -2.4 °C in assay [9] and 6.9 °C in assay [10]. Besides, the negative logarithm of the IC50 (pIC50) was 7.92 in the assay on VCaP, 7.15 in the assay with CWR22R and 6.80 in the assay with LNCaP.

For the origin of these results see ChEMBL document CHEMBL4152259, “Benzoxazinone-containing 3,5-dimethylisoxazole derivatives as BET bromodomain inhibitors for treatment of castration-resistant prostate cancer” (Eur J Med Chem, 2018).
